How the values were obtained:
MDA-MB-468 [1] = assay: Anticancer activity against human MDA-MB-468 cells assessed as inhibition of cell growth incubated for 48 hrs by SRB assay; type: functional; conditions: for CC50: read-out: LC50 (the source's name)
MCF7 [2] = assay: Anticancer activity against human MCF7 cells assessed as inhibition of cell growth incubated for 48 hrs by SRB assay; type: functional; conditions: for CC50: read-out: LC50 (the source's name)
MDA-MB-435 [3] = assay: Anticancer activity against human MDA-MB-435 cells assessed as inhibition of cell growth incubated for 48 hrs by SRB assay; type: functional
NCI-H226 [4] = assay: Anticancer activity against human NCI-H226 cells assessed as inhibition of cell growth incubated for 48 hrs by SRB assay; type: functional
MDA-MB-468 [5] = assay: Anticancer activity against human MDA-MB-468 cells assessed as cell growth at 0.1 uM incubated for 48 hrs by SRB assay; type: functional; conditions: read-out: Activity
MDA-MB-468 [6] = assay: Anticancer activity against human MDA-MB-468 cells assessed as cell growth at 1 uM incubated for 48 hrs by SRB assay; type: functional; conditions: read-out: Activity
MDA-MB-468 [7] = assay: Anticancer activity against human MDA-MB-468 cells assessed as cell growth at 10 uM incubated for 48 hrs by SRB assay; type: functional; conditions: read-out: Activity
MDA-MB-468 [8] = assay: Anticancer activity against human MDA-MB-468 cells assessed as cell growth at 100 uM incubated for 48 hrs by SRB assay; type: functional; conditions: read-out: Activity
MCF7 [9] = assay: Anticancer activity against human MCF7 cells assessed as cell growth at 0.1 uM incubated for 48 hrs by SRB assay; type: functional; conditions: read-out: Activity
MCF7 [10] = assay: Anticancer activity against human MCF7 cells assessed as cell growth at 1 uM incubated for 48 hrs by SRB assay; type: functional; conditions: read-out: Activity
MCF7 [11] = assay: Anticancer activity against human MCF7 cells assessed as cell growth at 10 uM incubated for 48 hrs by SRB assay; type: functional; conditions: read-out: Activity
MCF7 [12] = assay: Anticancer activity against human MCF7 cells assessed as cell growth at 100 uM incubated for 48 hrs by SRB assay; type: functional; conditions: read-out: Activity
NCI-H226 [13] = assay: Anticancer activity against human NCI-H226 cells assessed as cell growth at 0.1 uM incubated for 48 hrs by SRB assay; type: functional; conditions: read-out: Activity
NCI-H226 [14] = assay: Anticancer activity against human NCI-H226 cells assessed as cell growth at 1 uM incubated for 48 hrs by SRB assay; type: functional; conditions: read-out: Activity
NCI-H226 [15] = assay: Anticancer activity against human NCI-H226 cells assessed as cell growth at 10 uM incubated for 48 hrs by SRB assay; type: functional; conditions: read-out: Activity
NCI-H226 [16] = assay: Anticancer activity against human NCI-H226 cells assessed as cell growth at 100 uM incubated for 48 hrs by SRB assay; type: functional; conditions: read-out: Activity
MDA-MB-435 [17] = assay: Anticancer activity against human MDA-MB-435 cells assessed as cell growth at 0.1 uM incubated for 48 hrs by SRB assay; type: functional; conditions: read-out: Activity
MDA-MB-435 [18] = assay: Anticancer activity against human MDA-MB-435 cells assessed as cell growth at 1 uM incubated for 48 hrs by SRB assay; type: functional; conditions: read-out: Activity
MDA-MB-435 [19] = assay: Anticancer activity against human MDA-MB-435 cells assessed as cell growth at 10 uM incubated for 48 hrs by SRB assay; type: functional; conditions: read-out: Activity
MDA-MB-435 [20] = assay: Anticancer activity against human MDA-MB-435 cells assessed as cell growth at 100 uM incubated for 48 hrs by SRB assay; type: functional; conditions: read-out: Activity
CYP1A1 [21] = target: T1, CYP1A1 (Homo sapiens, UniProt P04798); assay: Inhibition of recombinant CYP1A1 (unknown origin) assessed as residual enzyme activity using 7-ethoxyresorufin as substrate at 0.01 uM incubated for 15 mins by resorufin dye based spectrofluorimetry (reference value: 100%); type: ADME; conditions: recombinant CYP1A1, probe 7-ethoxyresorufin, read-out: Activity
T1 sequence (P04798 whole entry): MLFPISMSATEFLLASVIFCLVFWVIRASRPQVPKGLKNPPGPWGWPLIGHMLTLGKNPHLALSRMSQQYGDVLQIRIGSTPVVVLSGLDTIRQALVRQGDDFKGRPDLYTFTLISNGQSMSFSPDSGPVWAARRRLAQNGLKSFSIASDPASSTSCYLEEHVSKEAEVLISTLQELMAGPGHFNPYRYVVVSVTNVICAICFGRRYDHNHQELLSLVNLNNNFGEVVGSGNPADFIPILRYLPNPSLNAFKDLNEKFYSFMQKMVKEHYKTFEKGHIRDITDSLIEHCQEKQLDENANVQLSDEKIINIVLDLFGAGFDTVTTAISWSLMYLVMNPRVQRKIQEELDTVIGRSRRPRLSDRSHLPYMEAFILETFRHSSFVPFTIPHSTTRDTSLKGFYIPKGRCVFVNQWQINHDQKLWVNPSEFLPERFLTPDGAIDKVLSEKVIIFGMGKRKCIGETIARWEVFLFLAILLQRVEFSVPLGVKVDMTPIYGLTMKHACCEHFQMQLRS

CYP1A1 [22] = target: T1, CYP1A1; assay: Inhibition of recombinant CYP1A1 (unknown origin) assessed as residual enzyme activity using 7-ethoxyresorufin as substrate at 0.1 uM incubated for 15 mins by resorufin dye based spectrofluorimetry (reference value: 100%); type: ADME; conditions: recombinant CYP1A1, probe 7-ethoxyresorufin, read-out: Activity
CYP1A1 [23] = target: T1, CYP1A1; assay: Inhibition of recombinant CYP1A1 (unknown origin) assessed as residual enzyme activity using 7-ethoxyresorufin as substrate at 1 uM incubated for 15 mins by resorufin dye based spectrofluorimetry (reference value: 100%); type: ADME; conditions: recombinant CYP1A1, probe 7-ethoxyresorufin, read-out: Activity
CYP1A1 [24] = target: T1, CYP1A1; assay: Inhibition of recombinant CYP1A1 (unknown origin) assessed as residual enzyme activity using 7-ethoxyresorufin as substrate at 10 uM incubated for 15 mins by resorufin dye based spectrofluorimetry (reference value: 100%); type: ADME; conditions: recombinant CYP1A1, probe 7-ethoxyresorufin, read-out: Activity
CYP1A1 [25] = target: T1, CYP1A1; assay: Inhibition of recombinant CYP1A1 (unknown origin) assessed as residual enzyme activity using 7-ethoxyresorufin as substrate at 50 uM incubated for 15 mins by resorufin dye based spectrofluorimetry (reference value: 100%); type: ADME; conditions: recombinant CYP1A1, probe 7-ethoxyresorufin, read-out: Activity
CYP1A1 [26] = target: T1, CYP1A1; assay: Inhibition of recombinant CYP1A1 (unknown origin) assessed as residual enzyme activity using 7-ethoxyresorufin as substrate at 100 uM incubated for 15 mins by resorufin dye based spectrofluorimetry (reference value: 100%); type: ADME; conditions: recombinant CYP1A1, probe 7-ethoxyresorufin, read-out: Activity
Cytochrome P450 1A1 = target: T2, Cytochrome P450 1A1 (Homo sapiens, UniProt P04798); assay: Inhibition of recombinant CYP1A1 (unknown origin) assessed as decrease in EROD activity using 7-ethoxyresorufin as substrate upto 100 uM incubated for 15 mins by resorufin dye based spectrofluorimetry; type: ADME; conditions: recombinant enzyme, 0.25 h
T2 sequence (P04798 whole entry): T1 sequence (P04798 whole entry)

Row | SMILES | GI50 (MDA-MB-468 [1]) | TGI (MDA-MB-468 [1]) | CC50 (MDA-MB-468 [1]) | GI50 (MCF7 [2]) | TGI (MCF7 [2]) | CC50 (MCF7 [2]) | GI50 (MDA-MB-435 [3]) | LC50 (MDA-MB-435 [3]) | TGI (MDA-MB-435 [3]) | GI50 (NCI-H226 [4]) | LC50 (concentration killing 50% of cells) (NCI-H226 [4]) | TGI (NCI-H226 [4]) | growth at 0.1 µM (MDA-MB-468 [5]) | growth at 1 µM (MDA-MB-468 [6]) | growth at 10 µM (MDA-MB-468 [7]) | growth at 100 µM (MDA-MB-468 [8]) | growth at 0.1 µM (MCF7 [9]) | growth at 1 µM (MCF7 [10]) | growth at 10 µM (MCF7 [11]) | growth at 100 µM (MCF7 [12]) | other results
1 | Cc1cc(C)n(C(=O)CNc2ccccc2Cl)n1 | 89.3 µM | > 100 µM | > 100 µM | 61.1 µM | > 100 µM | > 100 µM | > 100 µM | > 100 µM | > 100 µM | > 100 µM | > 100 µM | > 100 µM | 100% | 100% | 94.7% | 43.3% | 89.6% | 82.9% | 77.2% | 26.7% | growth at 0.1 µM (NCI-H226 [13]): 82.5%; growth at 1 µM (NCI-H226 [14]): 73.4%; growth at 10 µM (NCI-H226 [15]): 71.5%; growth at 100 µM (NCI-H226 [16]): 63.6%; growth at 0.1 µM (MDA-MB-435 [17]): 100%; growth at 1 µM (MDA-MB-435 [18]): 100%; growth at 10 µM (MDA-MB-435 [19]): 100%; growth at 100 µM (MDA-MB-435 [20]): 85.9%; activity at 0.25 h, 0.01 µM (CYP1A1 [21]): 101%; activity at 0.25 h, 0.1 µM (CYP1A1 [22]): 100%; activity at 0.25 h, 1 µM (CYP1A1 [23]): 99.9%; activity at 0.25 h, 10 µM (CYP1A1 [24]): 98.2%; activity at 0.25 h, 50 µM (CYP1A1 [25]): 104%; activity at 0.25 h, 100 µM (CYP1A1 [26]): 99.3%; inhibition (INH) (Cytochrome P450 1A1): Not Active
2 | Cc1cc(C)cc(O[C@H](C)C(=O)Nc2ccc(F)c([N+](=O)[O-])c2)c1 | 40.9 µM | 79.1 µM | > 100 µM | 61.6 µM | > 100 µM | > 100 µM | > 100 µM | > 100 µM | > 100 µM | > 100 µM | > 100 µM | > 100 µM | 99.1% | 97.9% | 95.9% | -29.4% | 89.3% | 85.5% | 73.5% | 27.8% | growth at 0.1 µM (NCI-H226 [13]): 73.7%; growth at 1 µM (NCI-H226 [14]): 71.8%; growth at 10 µM (NCI-H226 [15]): 65.6%; growth at 100 µM (NCI-H226 [16]): 58.2%; growth at 0.1 µM (MDA-MB-435 [17]): 100%; growth at 1 µM (MDA-MB-435 [18]): 100%; growth at 10 µM (MDA-MB-435 [19]): 100%; growth at 100 µM (MDA-MB-435 [20]): 89.5%; activity at 0.25 h, 0.01 µM (CYP1A1 [21]): 98.8%; activity at 0.25 h, 0.1 µM (CYP1A1 [22]): 93.5%; activity at 0.25 h, 1 µM (CYP1A1 [23]): 94.2%; activity at 0.25 h, 10 µM (CYP1A1 [24]): 95.7%; activity at 0.25 h, 50 µM (CYP1A1 [25]): 96.6%; activity at 0.25 h, 100 µM (CYP1A1 [26]): 96.4%; inhibition (INH) (Cytochrome P450 1A1): Not Active
3 | Cc1ccc(-c2cc(C(N)=O)c3cc(Cl)ccc3n2)o1 | > 100 µM | > 100 µM | > 100 µM | 63.9 µM | > 100 µM | > 100 µM | > 100 µM | > 100 µM | > 100 µM | 70.5 µM | > 100 µM | > 100 µM | 91.9% | 90.6% | 85.9% | 72.5% | 98.2% | 92.5% | 79% | 25.5% | growth at 0.1 µM (NCI-H226 [13]): 84.8%; growth at 1 µM (NCI-H226 [14]): 76.6%; growth at 10 µM (NCI-H226 [15]): 60.5%; growth at 100 µM (NCI-H226 [16]): 39.9%; growth at 0.1 µM (MDA-MB-435 [17]): 98.4%; growth at 1 µM (MDA-MB-435 [18]): 95%; growth at 10 µM (MDA-MB-435 [19]): 87.2%; growth at 100 µM (MDA-MB-435 [20]): 77.2%; activity at 0.25 h, 0.01 µM (CYP1A1 [21]): 98.5%; activity at 0.25 h, 0.1 µM (CYP1A1 [22]): 101%; activity at 0.25 h, 1 µM (CYP1A1 [23]): 101%; activity at 0.25 h, 10 µM (CYP1A1 [24]): 98.6%; activity at 0.25 h, 50 µM (CYP1A1 [25]): 100%; activity at 0.25 h, 100 µM (CYP1A1 [26]): 104%; inhibition (INH) (Cytochrome P450 1A1): Not Active
